The values that follow come from patent publication US12304900B2, “Islet cell manufacturing compositions and methods of use” (Vertex Pharmaceuticals Incorporated, priority 2017, dated 2025).

For the experiment, the system named is PGT cells (Stage 2 cells). Briefly: Flow cytometry of cell constituent at Stage 4-complete after signaling factors at Stage 3. The format is cell-based. An excerpt:
In the meantime, LDN193189 also promoted chromogranin A (CHGA) expression in Stage 4-complete cells.
For orientation: In flow cytometry, cells or beads pass a laser one at a time.

Where [1] appears, read: Stage 4-complete, 0.5 μM DMH-1 alone vs no DMH-1, FIG. 6B.

With `CC(C)Oc1ccc(-c2cnc3c(-c4ccnc5ccccc45)cnn3c2)cc1` [DMH-1], under setting [1], the “percentage of cells expressing CDX2” value is given as “reduced” and the “percentage of cells expressing CHGA” value is “increased”.

`c1ccc2c(-c3cnn4cc(-c5ccc(N6CCNCC6)cc5)cnc34)ccnc2c1` [LDN193189, 4-[6-(4-piperazin-1-ylphenyl)pyrazolo[1,5-a]pyrimidin-β-yl]quinolone]: the “chromogranin A (CHGA) expression” value (Stage 4-complete cells, LDN193189 at Stage 3, FIG. 6A) is recorded as “promoted”. The “percentage of CDX2-positive cells” value (Stage 4-complete, LDN193189 at Stage 3 vs absence, FIG. 6A) is “clearly reduced”.
